Measured values: patent publication US12122800B2, “Inhibitors of MEK kinase” (Kinnate Biopharma Inc., priority 2022, dated 2024)

System: A375 pERK
Experiment: Cellular assay monitoring phosphorylation of ERK (HTRF phospho-ERK Thr202/Tyr204) in A-375 cells
Assay type: cell-based
Details: Homo sapiens, melanoma derived cell line A-375 (BRAF V600 activating mutation), 1 hour incubation with compound
Procedure: To determine the effect of the MEK inhibitor compounds disclosed herein on cellular MAPK signaling downstream of MEK, an assay monitoring phosphorylation of ERK was used. Melanoma derived cell line A-375, which harbors a BRAF V600 activating mutation was cultured and maintained as specified by the supplier (ATCC: Cat #CRL-1619; American Type Culture Collection; Manassas, VA 20110). Cells were seeded at 8000 cells/well in 24 μL growth media in a 384-well plate and allowed to adhere at 37° C. with 5% CO2 overnight. The following day, compounds were serially diluted into 10-point, 3-fold dilution curves in 384 well plates. Compound was transferred to cell plates using Echo550 such that the final concentration range was 0.508 nM to […] in […] with 0.1% DMSO being used as negative control. Cells were incubated with compounds for 1 hour at 37° C. with […]. Cells were lysed by addition of 8 μL 4× lysis buffer provided with HTRF kit (Advanced phospho-ERK (Thr202/Tyr204) cellular kit; Cisbio; Cat #64AERPEH) plus 1× protease/phosphatase inhibitor cocktail. 20 μL lysate was transferred to HTRF plate followed by 2.5 μL each of anti-ERK1/2-Europium/Terbium Cryptate and anti-phospho-ERK1/2 antibody solutions per manufacturer's instructions and incubated. Specific signal was measured at […] on a Perkin Elmer Envision 2105 and the ratios used to calculate IC50 values within the Dotmatics Knowledge Solutions Studies curve fitting environment (Dotmatics, Bishops Stortford, UK, CM23) and are presented in Table 8.

IC50 [nM]	Compound
≤ 1000	CP(C)(=O)c1ccc(F)cc1Nc1ccc(I)cc1F [Example 2, 2-(Dimethylphosphoryl)-5-fluoro-N-(2-fluoro-4-iodophenyl)aniline]
100 to 1000	C#Cc1ccc(Nc2cnccc2[P@](C)(=O)CC)c(F)c1 (single isomer, unassigned) [Example 19]
> 10	CP(C)(=O)c1c(Cl)cncc1Nc1ccc(I)cc1F [Example 13, 5-Chloro-4-(dimethylphosphoryl)-N-(2-fluoro-4-iodophenyl)pyridin-3-amine]
100 to 1000	CCP(=O)(CC)c1ccncc1Nc1ccc(Br)cc1F [Example 11, N-(4-bromo-2-fluorophenyl)-4-(diethylphosphoryl)pyridin-3-amine]
100 to 1000	CP(C)(=O)c1cc(F)ncc1Nc1ccc(I)cc1F [Example 21, (2-Fluoro-5-((2-fluoro-4-iodophenyl)amino)pyridin-4-yl)dimethylphosphine oxide]
10 to 100	CP(C)(=O)c1ccnc(F)c1Nc1ccc(I)cc1F [Example 25, (2-Fluoro-3-((2-fluoro-4-iodophenyl)amino)pyridin-4-yl)dimethylphosphine oxide]
10 to 100	C#Cc1ccc(Nc2cnccc2P(C)(C)=O)c(F)c1 [Example 14, (3-((4-Ethynyl-2-fluorophenyl)amino)pyridin-4-yl)dimethylphosphine oxide]
10 to 100	CP(C)(=O)c1ccncc1Nc1ccc(I)c(F)c1F [Example 3, N-(2,3-Difluoro-4-iodophenyl)-4-(dimethylphosphoryl)pyridin-3-amine]
100 to 1000	CC[P@](C)(=O)c1ccncc1Nc1ccc(Br)cc1F (single isomer, unassigned) [Example 17]
> 10	CP(C)(=O)c1c(F)cncc1Nc1ccc(Br)cc1Cl [Example 26, N-(4-bromo-2-chlorophenyl)-4-(dimethylphosphoryl)-5-fluoropyridin-3-amine]
10 to 100	CP(C)(=O)c1c(Cl)cncc1Nc1ccc(Br)cc1F [Example 29, (3-((4-Bromo-2-fluorophenyl)amino)-5-chloropyridin-4-yl)dimethylphosphine oxide]
100 to 1000	O=P1(c2ccncc2Nc2ccc(Br)cc2F)CCCC1 [Example 12, 1-(3-((4-Bromo-2-fluorophenyl)amino)pyridin-4-yl)phospholane 1-oxide]
100 to 1000	CP(C)(=O)c1ccncc1Nc1ccc(Br)cc1Cl [Example 27, N-(4-bromo-2-chlorophenyl)-4-(dimethylphosphoryl) pyridin-3-amine]
10 to 100	CC[P@@](C)(=O)c1ccncc1Nc1ccc(I)cc1F (single isomer, unassigned) [Example 8]
10 to 100	C#Cc1ccc(Nc2cncc(F)c2P(C)(C)=O)c(F)c1 [Example 31, 4-(Dimethylphosphoryl)-N-(4-ethynyl-2-fluorophenyl)-5-fluoropyridin-3-amine]
> 10	CP(C)(=O)c1ccncc1Nc1ccc(I)cc1F [Example 1, 4-(Dimethylphosphoryl)-N-(2-fluoro-4-iodophenyl)pyridin-3-amine]

IC50 [nM]	Compound
10 to 100	CCP(C)(=O)c1ccncc1Nc1ccc(I)cc1F (centres unmarked) [Example 7, 4-[Ethyl(methyl)phosphoryl]-N-(2-fluoro-4-iodophenyl)pyridin-3-amine]
10 to 100	CP(C)(=O)c1ccncc1Nc1ccc(I)cc1 [Example 22, 4-(Dimethylphosphoryl)-N-(4-iodophenyl)pyridin-3-amine]
100 to 1000	C#Cc1ccc(Nc2cnccc2P2(=O)CCCC2)c(F)c1 [Example 15, 1-(3-((4-Ethynyl-2-fluorophenyl)amino)pyridin-4-yl)phospholane 1-oxide]
10 to 100	CC[P@](C)(=O)c1ccncc1Nc1ccc(I)cc1F (single isomer, unassigned) [Example 9]
100 to 1000	CC[P@@](C)(=O)c1ccncc1Nc1ccc(Br)cc1F (single isomer, unassigned) [Example 16]
10 to 100	CP(C)(=O)c1c(Cl)cncc1Nc1ccc(C2CC2)cc1F [Example 32, (3-Chloro-5-((4-cyclopropyl-2-fluorophenyl)amino)pyridin-4-yl)dimethylphosphine oxide]
100 to 1000	CP(C)(=O)c1ccncc1Nc1ccc(Br)cc1F [Example 10, N-(4-Bromo-2-fluorophenyl)-4-(dimethylphosphoryl)pyridin-3-amine]
10 to 100	CCP(=O)(CC)c1ccncc1Nc1ccc(I)cc1F [Example 6, 4-(Diethylphosphoryl)-N-(2-fluoro-4-iodophenyl)pyridin-3-amine]
10 to 100	O=P1(c2ccncc2Nc2ccc(I)cc2F)CCCC1 [Example 5, 1-(3-((2-Fluoro-4-iodophenyl)amino)pyridin-4-yl)phospholane 1-oxide]
100 to 1000	C#Cc1ccc(Nc2cnccc2[P@@](C)(=O)CC)c(F)c1 (single isomer, unassigned) [Example 20]
≤ 1000	CP(C)(=O)c1ccc(F)c(F)c1Nc1ccc(I)cc1F [Example 4, 6-(Dimethylphosphoryl)-2,3-difluoro-N-(2-fluoro-4-iodophenyl)aniline]
100 to 1000	C#Cc1ccc(Nc2cnccc2P(=O)(CC)CC)c(F)c1 [Example 18, 4-(Diethylphosphoryl)-N-(4-ethynyl-2-fluorophenyl)pyridin-3-amine]
100 to 1000	CP(C)(=O)c1c(Cl)cncc1Nc1ccc(Br)cc1Cl [Example 28, N-(4-Bromo-2-chlorophenyl)-5-chloro-4-(dimethylphosphoryl)pyridin-3-amine]
> 10	CP(C)(=O)c1c(F)cncc1Nc1ccc(I)cc1F [Example 24, 4-(Dimethylphosphoryl)-5-fluoro-N-(2-fluoro-4-iodophenyl)pyridin-3-amine]
10 to 100	CP(C)(=O)c1ccncc1Nc1ccc(C2CC2)cc1F [Example 23, N-(4-Cyclopropyl-2-fluorophenyl)-4-(dimethylphosphoryl)pyridin-3-amine]
> 10	Cc1cncc(Nc2ccc(I)cc2F)c1P(C)(C)=O [Example 30, 4-(Dimethylphosphoryl)-N-(2-fluoro-4-iodophenyl)-5-methylpyridin-3-amine]
